Test results published in ChEMBL document CHEMBL5465560, “Selectivity Literature for EUbOPEN Chemogenomic Library” (2024).

Key:
[1] = biological target: Insulin-like growth factor 1 receptor (Homo sapiens, UniProt P08069); test: Selectivity interaction (KinomeScan (DiscoverX)) EUB0001049a IGF1R; settings: at 1 µM
[2] = biological target: Cyclin-dependent kinase 16 (Homo sapiens) (UniProt Q00536); test: Selectivity interaction (ActivX KiNativ screen (kinase selectivity in THP-1 cell lysates)) EUB0000639a CDK16; format: subcellular; settings: lysate, at 0.2 µM
[3] = biological target: Serine/threonine-protein kinase PRP4 homolog (Homo sapiens) (UniProt Q13523); test: Selectivity interaction (ActivX KiNativ screen (kinase selectivity in THP-1 cell lysates)) EUB0000639a PRPF4; format: subcellular; settings: lysate, at 1 µM
[4] = biological target: T1, Ephrin type-A receptor 1 (Homo sapiens) (UniProt P21709); test: Selectivity interaction (Ambit KINOMEscan and KiNATiv profiling in Jurkat cells) EUB0000090b EPHA1; format: cell-based; settings: at 1 µM
T1 sequence (whole entry): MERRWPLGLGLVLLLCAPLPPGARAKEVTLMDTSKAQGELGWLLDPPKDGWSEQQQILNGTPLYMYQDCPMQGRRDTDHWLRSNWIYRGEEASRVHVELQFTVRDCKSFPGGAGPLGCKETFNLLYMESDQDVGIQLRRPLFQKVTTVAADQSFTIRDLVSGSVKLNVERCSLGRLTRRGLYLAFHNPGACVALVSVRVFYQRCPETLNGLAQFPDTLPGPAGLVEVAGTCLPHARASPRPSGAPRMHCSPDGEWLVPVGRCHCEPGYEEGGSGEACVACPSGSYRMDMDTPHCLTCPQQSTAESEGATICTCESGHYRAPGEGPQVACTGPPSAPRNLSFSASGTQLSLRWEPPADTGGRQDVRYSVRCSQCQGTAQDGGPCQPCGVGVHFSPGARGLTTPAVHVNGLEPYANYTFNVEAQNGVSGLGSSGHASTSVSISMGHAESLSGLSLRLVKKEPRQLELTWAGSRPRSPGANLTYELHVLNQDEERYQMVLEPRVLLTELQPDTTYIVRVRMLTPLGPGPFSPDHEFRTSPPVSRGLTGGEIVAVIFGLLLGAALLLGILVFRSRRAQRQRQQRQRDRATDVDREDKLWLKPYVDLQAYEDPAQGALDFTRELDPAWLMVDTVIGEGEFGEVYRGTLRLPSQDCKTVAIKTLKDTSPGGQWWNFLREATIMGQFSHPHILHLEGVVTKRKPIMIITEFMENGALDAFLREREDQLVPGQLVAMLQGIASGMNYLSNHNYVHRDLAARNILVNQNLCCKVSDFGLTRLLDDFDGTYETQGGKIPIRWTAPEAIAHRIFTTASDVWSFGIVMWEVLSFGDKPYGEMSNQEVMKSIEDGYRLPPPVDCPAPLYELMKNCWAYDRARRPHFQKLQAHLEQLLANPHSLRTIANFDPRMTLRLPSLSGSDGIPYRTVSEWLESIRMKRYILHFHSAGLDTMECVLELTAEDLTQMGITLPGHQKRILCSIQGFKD

[5] = biological target: Tyrosine-protein kinase Fyn (Homo sapiens) (UniProt P06241); test: Selectivity interaction (Ambit KINOMEscan and KiNATiv profiling in Jurkat cells) EUB0000090b FYN; format: cell-based; settings: at 1 µM
[6] = biological target: Leukocyte tyrosine kinase receptor (Homo sapiens, UniProt P29376); test: Selectivity interaction (Ambit KINOMEscan and KiNATiv profiling in Jurkat cells) EUB0000090b LTK; format: cell-based; settings: at 1 µM
[7] = biological target: Calcium/calmodulin-dependent protein kinase type 1D (Homo sapiens) (UniProt Q8IU85); test: Selectivity interaction (KinomeScan (DiscoverX)) EUB0000618a CAMK1D; settings: at 10 µM
[8] = biological target: Glycogen synthase kinase-3 alpha (Homo sapiens, UniProt P49840); test: Selectivity interaction (KinomeScan (DiscoverX)) EUB0000618a GSK3A; settings: at 10 µM
[9] = biological target: Tyrosine-protein kinase Fes/Fps (Homo sapiens) (UniProt P07332); settings: at 10 µM
[10] = biological target: Cyclin-dependent kinase 16 (Homo sapiens) (UniProt Q00536); test: Selectivity interaction (KinomeScan (DiscoverX)) EUB0001619a CDK16; settings: at 1 µM
[11] = biological target: Vascular endothelial growth factor receptor 2 (Homo sapiens, UniProt P35968); test: Selectivity interaction (Upstate Kinase Profiler service (Millipore)) EUB0000056c KDR; settings: at 1 µM
[12] = biological target: T2, Bone morphogenetic protein receptor type-2 (Homo sapiens) (UniProt Q13873); test: Selectivity interaction (KinomeScan (DiscoverX)) EUB0000655a BMPR2; settings: at 10 µM
T2 sequence (whole entry): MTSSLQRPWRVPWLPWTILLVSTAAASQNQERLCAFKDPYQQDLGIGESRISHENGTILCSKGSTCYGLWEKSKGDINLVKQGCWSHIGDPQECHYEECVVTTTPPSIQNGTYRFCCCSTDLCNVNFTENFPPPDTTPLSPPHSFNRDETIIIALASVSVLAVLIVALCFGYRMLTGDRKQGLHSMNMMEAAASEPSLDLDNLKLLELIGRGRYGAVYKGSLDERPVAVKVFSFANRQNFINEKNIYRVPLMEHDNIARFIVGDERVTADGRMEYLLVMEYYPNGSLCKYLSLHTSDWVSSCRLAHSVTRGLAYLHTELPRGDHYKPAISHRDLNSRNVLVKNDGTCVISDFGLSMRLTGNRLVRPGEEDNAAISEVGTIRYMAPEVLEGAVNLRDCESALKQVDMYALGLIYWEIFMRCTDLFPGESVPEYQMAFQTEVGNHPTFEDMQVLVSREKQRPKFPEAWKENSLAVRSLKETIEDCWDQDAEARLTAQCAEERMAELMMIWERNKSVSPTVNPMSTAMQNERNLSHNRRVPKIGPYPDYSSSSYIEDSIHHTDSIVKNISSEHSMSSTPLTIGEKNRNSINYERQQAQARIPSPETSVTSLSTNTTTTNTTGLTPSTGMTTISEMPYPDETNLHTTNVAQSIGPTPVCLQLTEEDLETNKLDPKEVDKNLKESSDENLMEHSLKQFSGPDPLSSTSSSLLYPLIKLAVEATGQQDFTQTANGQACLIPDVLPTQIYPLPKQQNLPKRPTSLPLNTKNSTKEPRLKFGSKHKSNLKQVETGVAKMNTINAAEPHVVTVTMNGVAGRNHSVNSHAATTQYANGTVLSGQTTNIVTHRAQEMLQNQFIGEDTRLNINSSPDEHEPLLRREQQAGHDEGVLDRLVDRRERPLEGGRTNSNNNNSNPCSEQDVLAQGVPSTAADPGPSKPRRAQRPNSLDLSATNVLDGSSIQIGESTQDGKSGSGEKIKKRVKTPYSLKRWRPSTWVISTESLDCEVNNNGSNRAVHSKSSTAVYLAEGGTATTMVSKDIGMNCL

[13] = biological target: Phosphatidylinositol 4-phosphate 5-kinase type-1 alpha (Homo sapiens) (UniProt Q99755); test: Selectivity interaction (KinomeScan (DiscoverX)) EUB0000607a PIP5K1A; settings: at 10 µM
[14] = biological target: Dual specificity mitogen-activated protein kinase kinase 1 (Homo sapiens, UniProt Q02750); test: Selectivity interaction (Kinase panel (Z-LYTE Assay)) EUB0001632a MAP2K1; settings: at 10 µM

Sequence of Cyclin-dependent kinase 16 (Homo sapiens) (Q00536 whole entry): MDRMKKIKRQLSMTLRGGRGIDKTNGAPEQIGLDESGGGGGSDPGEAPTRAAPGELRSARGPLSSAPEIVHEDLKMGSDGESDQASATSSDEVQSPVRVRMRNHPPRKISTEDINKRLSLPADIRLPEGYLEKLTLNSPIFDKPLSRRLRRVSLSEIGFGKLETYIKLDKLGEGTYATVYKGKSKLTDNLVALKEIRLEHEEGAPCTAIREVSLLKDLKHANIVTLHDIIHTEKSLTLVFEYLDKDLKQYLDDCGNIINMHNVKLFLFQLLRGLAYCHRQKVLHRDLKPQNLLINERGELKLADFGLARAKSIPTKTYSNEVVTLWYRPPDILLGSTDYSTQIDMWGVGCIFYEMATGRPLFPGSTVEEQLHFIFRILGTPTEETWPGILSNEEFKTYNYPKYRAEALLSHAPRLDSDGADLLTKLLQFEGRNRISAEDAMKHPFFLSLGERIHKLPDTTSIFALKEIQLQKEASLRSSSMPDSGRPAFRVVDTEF
Sequence of Vascular endothelial growth factor receptor 2 (P35968 whole entry): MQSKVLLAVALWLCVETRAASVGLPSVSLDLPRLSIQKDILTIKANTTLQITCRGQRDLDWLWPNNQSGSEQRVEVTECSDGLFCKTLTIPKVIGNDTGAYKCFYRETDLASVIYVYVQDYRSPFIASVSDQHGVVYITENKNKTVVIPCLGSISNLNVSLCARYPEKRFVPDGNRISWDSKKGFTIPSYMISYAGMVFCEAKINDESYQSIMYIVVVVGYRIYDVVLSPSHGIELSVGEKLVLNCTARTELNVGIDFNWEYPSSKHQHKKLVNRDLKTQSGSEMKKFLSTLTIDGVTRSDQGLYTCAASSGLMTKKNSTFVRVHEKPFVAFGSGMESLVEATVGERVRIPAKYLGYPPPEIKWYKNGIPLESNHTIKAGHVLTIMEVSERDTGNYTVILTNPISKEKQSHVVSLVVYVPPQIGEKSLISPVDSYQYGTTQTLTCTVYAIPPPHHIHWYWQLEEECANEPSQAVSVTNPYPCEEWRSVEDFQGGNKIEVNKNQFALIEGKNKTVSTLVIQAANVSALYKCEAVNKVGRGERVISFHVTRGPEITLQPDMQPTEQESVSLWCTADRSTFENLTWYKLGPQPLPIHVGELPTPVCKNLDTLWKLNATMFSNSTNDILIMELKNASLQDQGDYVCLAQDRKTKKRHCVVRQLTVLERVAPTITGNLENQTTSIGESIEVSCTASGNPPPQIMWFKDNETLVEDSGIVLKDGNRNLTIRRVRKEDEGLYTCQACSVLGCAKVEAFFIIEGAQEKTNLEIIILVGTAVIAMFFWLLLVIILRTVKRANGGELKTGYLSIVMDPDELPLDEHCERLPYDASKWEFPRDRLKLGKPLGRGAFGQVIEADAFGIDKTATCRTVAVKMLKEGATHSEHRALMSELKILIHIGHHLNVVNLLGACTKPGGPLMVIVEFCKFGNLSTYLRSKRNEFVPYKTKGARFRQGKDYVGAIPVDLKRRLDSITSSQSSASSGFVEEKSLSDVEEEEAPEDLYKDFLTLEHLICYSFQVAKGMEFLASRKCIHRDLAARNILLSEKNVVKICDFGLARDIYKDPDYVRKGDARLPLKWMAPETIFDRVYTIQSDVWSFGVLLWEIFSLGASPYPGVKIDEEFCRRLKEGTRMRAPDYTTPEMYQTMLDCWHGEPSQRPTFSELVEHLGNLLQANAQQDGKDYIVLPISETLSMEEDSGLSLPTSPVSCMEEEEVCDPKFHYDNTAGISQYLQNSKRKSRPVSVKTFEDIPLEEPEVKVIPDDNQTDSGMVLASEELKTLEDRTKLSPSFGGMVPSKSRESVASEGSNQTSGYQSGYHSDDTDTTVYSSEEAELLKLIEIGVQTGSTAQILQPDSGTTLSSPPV
Sequence of Leukocyte tyrosine kinase receptor (P29376 whole entry): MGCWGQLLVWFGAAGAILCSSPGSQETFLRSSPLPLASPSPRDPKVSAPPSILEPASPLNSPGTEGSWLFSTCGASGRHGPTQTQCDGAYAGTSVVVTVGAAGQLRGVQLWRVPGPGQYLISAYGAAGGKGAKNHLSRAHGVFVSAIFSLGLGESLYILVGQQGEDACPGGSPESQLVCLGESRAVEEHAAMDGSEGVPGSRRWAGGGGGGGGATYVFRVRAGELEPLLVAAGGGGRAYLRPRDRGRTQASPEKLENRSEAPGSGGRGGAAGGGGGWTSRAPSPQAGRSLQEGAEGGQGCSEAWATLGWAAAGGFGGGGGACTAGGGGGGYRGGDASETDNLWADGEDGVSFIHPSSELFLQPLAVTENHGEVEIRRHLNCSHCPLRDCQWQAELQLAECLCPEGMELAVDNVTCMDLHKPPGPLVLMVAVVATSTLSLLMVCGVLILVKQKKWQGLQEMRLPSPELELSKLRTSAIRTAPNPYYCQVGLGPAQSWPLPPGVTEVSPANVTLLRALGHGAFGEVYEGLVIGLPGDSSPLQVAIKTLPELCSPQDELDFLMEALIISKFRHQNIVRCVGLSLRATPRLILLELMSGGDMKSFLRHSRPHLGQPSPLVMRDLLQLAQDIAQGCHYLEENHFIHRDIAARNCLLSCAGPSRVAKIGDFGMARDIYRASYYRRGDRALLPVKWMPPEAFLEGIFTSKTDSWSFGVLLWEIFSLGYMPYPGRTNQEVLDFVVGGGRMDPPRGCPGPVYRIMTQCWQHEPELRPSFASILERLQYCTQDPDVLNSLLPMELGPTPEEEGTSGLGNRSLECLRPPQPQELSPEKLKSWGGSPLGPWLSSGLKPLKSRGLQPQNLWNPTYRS
Sequence of Tyrosine-protein kinase Fyn (Homo sapiens) (P06241 2-537 limits assumed): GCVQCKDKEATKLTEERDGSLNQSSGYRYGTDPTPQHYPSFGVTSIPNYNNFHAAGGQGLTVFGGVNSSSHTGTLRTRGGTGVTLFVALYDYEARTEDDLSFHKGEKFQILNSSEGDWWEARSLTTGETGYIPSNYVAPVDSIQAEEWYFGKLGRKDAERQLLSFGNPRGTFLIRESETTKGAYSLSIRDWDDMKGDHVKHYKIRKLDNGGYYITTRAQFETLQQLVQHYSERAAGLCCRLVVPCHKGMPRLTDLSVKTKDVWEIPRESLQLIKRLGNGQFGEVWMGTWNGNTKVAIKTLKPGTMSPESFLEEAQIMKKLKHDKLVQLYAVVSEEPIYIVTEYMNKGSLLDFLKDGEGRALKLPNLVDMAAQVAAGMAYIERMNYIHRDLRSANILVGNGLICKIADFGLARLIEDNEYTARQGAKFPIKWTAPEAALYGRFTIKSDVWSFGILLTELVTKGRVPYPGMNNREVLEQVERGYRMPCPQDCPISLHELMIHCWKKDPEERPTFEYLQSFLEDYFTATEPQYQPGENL
Sequence of Glycogen synthase kinase-3 alpha (P49840 2-483 limits assumed): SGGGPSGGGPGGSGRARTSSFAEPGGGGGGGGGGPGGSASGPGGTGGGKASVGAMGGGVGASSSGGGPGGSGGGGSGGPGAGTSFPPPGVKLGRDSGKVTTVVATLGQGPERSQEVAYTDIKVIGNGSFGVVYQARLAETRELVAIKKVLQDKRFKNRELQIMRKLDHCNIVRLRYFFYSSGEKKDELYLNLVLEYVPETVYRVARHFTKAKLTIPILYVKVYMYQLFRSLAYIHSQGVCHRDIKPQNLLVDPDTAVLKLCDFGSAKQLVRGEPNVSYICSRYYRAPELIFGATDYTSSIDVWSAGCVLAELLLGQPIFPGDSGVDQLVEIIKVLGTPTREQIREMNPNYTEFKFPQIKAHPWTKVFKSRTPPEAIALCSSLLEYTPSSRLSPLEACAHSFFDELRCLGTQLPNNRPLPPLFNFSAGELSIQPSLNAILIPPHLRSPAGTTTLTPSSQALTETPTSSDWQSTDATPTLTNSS
Sequence of Phosphatidylinositol 4-phosphate 5-kinase type-1 alpha (Homo sapiens) (Q99755 whole entry): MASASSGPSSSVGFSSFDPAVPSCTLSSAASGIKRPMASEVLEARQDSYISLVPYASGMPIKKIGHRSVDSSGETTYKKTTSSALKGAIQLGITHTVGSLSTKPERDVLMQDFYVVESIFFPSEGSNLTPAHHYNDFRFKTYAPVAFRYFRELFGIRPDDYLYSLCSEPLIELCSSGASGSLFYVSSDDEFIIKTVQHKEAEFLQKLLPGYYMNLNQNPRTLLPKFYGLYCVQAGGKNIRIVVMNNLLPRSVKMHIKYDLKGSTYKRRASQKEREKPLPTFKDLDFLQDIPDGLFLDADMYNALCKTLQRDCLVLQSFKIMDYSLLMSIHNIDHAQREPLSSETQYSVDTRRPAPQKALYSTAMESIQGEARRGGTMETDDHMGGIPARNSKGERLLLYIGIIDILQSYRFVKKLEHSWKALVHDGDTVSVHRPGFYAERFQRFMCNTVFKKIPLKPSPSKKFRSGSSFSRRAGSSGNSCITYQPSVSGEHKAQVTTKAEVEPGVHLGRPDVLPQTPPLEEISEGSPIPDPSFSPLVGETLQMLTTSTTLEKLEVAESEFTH
Sequence of Calcium/calmodulin-dependent protein kinase type 1D (Homo sapiens) (Q8IU85 whole entry, looked up): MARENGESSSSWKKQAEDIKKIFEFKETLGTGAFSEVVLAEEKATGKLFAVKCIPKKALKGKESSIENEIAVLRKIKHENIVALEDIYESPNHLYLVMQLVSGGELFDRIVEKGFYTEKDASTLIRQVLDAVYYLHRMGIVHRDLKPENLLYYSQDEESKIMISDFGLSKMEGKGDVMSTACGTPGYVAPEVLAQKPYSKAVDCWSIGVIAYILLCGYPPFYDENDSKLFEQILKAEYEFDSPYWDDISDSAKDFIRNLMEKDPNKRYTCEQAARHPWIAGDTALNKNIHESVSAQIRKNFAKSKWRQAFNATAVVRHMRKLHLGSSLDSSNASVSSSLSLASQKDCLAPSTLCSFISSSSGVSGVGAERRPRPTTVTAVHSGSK

## COc1cc(Nc2nc(C)cc(-c3cnn4nc(OC)ccc34)n2)cc(C(F)(F)F)c1
[1]
  % of control: 91%

## CC[C@@H]1[C@H](F)C(=O)N[C@@H]1COc1nccc2cc(C(N)=O)c(OC)cc12 [ZIMLOVISERTIB]
[2]
  % of inhibition: -0.8%
[3]
  % of inhibition: 67.7%

## CN(C)C/C=C/C(=O)Nc1ccc(C(=O)N2CCCC(Nc3ncc(Cl)c(-c4c[nH]c5ccccc45)n3)C2)cc1 (centres undefined)
[4]
  % of control: 73%
[5]
  % of control: 61%
[6]
  % of control: 84%

## O[C@H]1CC[C@H](Nc2ncc3nc(Nc4c(F)cc(F)cc4F)n([C@H]4CCOC4)c3n2)CC1
[7]
  % of control: 93%
[8]
  % of control: 90%

## Cc1cc([C@@H](C)Nc2ccccc2C(=O)O)c2nc(N3CCOCC3)cc(=O)n2c1 [AZD-6482]
[9]
  % of control: 94%

## N#Cc1cccc(-c2c[nH]c3ncnc(N4CCOCC4)c23)c1
[10]
  % of control: 90%

## Cc1ccc(-c2ccc3c(ccc4sc5c(c43)NC[C@@H](C)NC5=O)n2)cn1
[11]
  % of inhibition: 21%

## CN(C)CCOc1ccc(-c2nc(-c3ccncc3)c(-c3ccc4c(c3)CC/C4=N\O)[nH]2)cc1
[12]
  % of control: 47%

## CNC(=O)Nc1ccc(-c2nc(N3CC4CCC(C3)O4)c3cnn(C4CCC5(CC4)OCCO5)c3n2)cc1
[13]
  % of control: 84%

## Cn1cc(-n2cnc3c(NCc4nc5cc(Cl)c(Cl)cc5[nH]4)nc(N4CCOCC4)nc32)cn1
[14]
  % of control: -2.06%
